{"source": "patent US10626368B2", "about": "“Method for inducing cerebral cortex neurons” (KYOTO UNIVERSITY, priority 2015, dated 2020)", "type_in_all_cases": "cell-based, human", "key": {"[1]": {"test_system": "ES cells or the iPS cells", "experiment": "qPCR of marker gene expression in cells differentiated with added inhibitors", "text": "(§1) Human ES cells (KhES-1) were obtained from Institute for Frontier Medical Sciences, Kyoto University (Suemori H, et al. Biochem Biophys Res Commun. 345: 926-32, 2006). The human iPS cells 404C2 are cells obtained by introducing Oct3/4, Sox2, Klf4, L-MYC, LIN28 and p53shRNA into human fibroblasts, using an episomal vector, and these cells were obtained from Professor Yamanaka et al. in Kyoto University (Okita, et al, Nat Methods. 8: 409-412, 2011). The human iPS cells 836B1 are cells obtained by introducing Oct3/4, Sox2, Klf4, L-MYC, LIN28, GLIS1 and p53shRNA into human fibroblasts, using an episomal vector, and these cells were obtained from Professor Yamanaka et al. in Kyoto University. The ES cells and the iPS cells were cultured on SNL cells (Takahashi K, et al, Cell. 131: 861-872, 2007).\nOn the day before induction of differentiation, in order to separate the ES cells or the iPS cells, which had been cultured in a culture medium to which 10 μM Y-27632 (WAKO) had been added, from the SNL feeder cells, the SNL cells were removed with CTK and the remaining cells were then dissociated using Accumax (ICT). The cells were transferred on a 96-well plate (Lipidure-coat 96-well plate (NOF Corporation)) in an amount of 9×10^3 cells per well. Thereafter, the cells were subjected to a suspension culture in DMEM/F12 (WAKO) comprising 50 μM Y-27632 (WAKO), 10 μM SB43152 (Sigma), 10 ng/ml bFGF (Invitrogen), various types of Wnt inhibitors (DKK1 (R & D, 500 ng/ml), C59 (Cellagen Technology, 2-10 nM), XAV (Stemgent, 500 nM-2 μM) or IWP4 (Stemgent, 500 nM-2.5 μM)), LDN193189 (Stemgent), KSR (Invitrogen), 0.1 mM MEM non-essential amino acid (Invitrogen), 0.1 mM 2-mercaptoethanol (WAKO), and 2 mM L-Gln (Invitrogen) (initiation of differentiation induction, day 0). […] Three days later, the medium was exchanged with DMEM/F12 (WAKO) comprising various types of Wnt inhibitors (DKK1, C59, XAV or IWP4 (Stemgent)), LDN193189 (Stemgent), KSR (Invitrogen), 0.1 mM MEM non-essential amino acid (Invitrogen), 0.1 mM 2-mercaptoethanol (WAKO), and 2 mM L-Gln (Invitrogen) (day 6). Thereafter, the medium was exchanged with a fresh one of the same type every 3 days, and the culture was carried out for 18 days after the initiation of differentiation induction (day 18).\nThe obtained cell mass was transferred on a dish (24-well plate (BD)) coated with 50 μg/ml ornithine (Sigma), 5 μg/ml laminin (Sigma) and 5 μg/ml fibronectin (BD Bioscience Pharmingen), and the culture was continued in Neurobasal (Invitrogen), to which B27 (Invitrogen), 2 mM L-Gln, and 10 units/ml penicillin and streptomycin (Invitrogen) had been added. The culture was carried out for, at maximum, 46 days after the initiation of differentiation induction. It is to be noted that the medium was exchanged with a fresh one every 2 or 3 days.\nIn the above-described induction method, 500 ng/ml DKK1, 2 nM C59, 500 nM XAV or 500 nM IWP4 was added as a Wnt inhibitor to the cells, and the obtained mixture was then cultured for 18 days. Thereafter, the expression levels of Six3 (forebrain marker), Sox1 (neuroectodermal marker), Foxg1 (cerebral cortex-forming factor), Lhx2 (cerebral cortex-forming factor), Emx2 (forebrain back portion marker), CoupTF1 (forebrain back portion marker) and Pax6 (forebrain front portion marker) genes in the cultured cells were measured by a qPCR method (FIG. 2).\nThe concentration of C59 used as a Wnt inhibitor in the above-described induction method was examined. Specifically, without using C59, or using 2.5 nM, 10 nM and 1 μM C59, the cells were cultured for 18 days. […] The obtained spheres were subjected to immunostaining of using an antibody against Pax6. […] Furthermore, the expression levels of the Foxg1, Lhx2, Emx2 and CoupTF1 genes in the obtained spheres were measured according to a qPCR method (FIG. 4B). As a result, the expression level of CoupTF1 was low and the expression levels of Lhx2 and Foxg1 were high in the case of using 10 nM C59. […]"}, "[2]": {"test_system": "ES cells or the iPS cells", "experiment": "Immunostaining for CoupTF1 and Ctip2 after 46 days of cerebral cortex differentiation", "text": "as §1\nOn the day before induction of differentiation, in order to separate the ES cells or the iPS cells, which had been cultured in a culture medium to which 10 μM Y-27632 (WAKO) had been added, from the SNL feeder cells, the SNL cells were removed with CTK and the remaining cells were then dissociated using Accumax (ICT). The cells were transferred on a 96-well plate (Lipidure-coat 96-well plate (NOF Corporation)) in an amount of 9×10^3 cells per well. Thereafter, the cells were subjected to a suspension culture in DMEM/F12 (WAKO) comprising 50 μM Y-27632 (WAKO), 10 μM SB43152 (Sigma), 10 ng/ml bFGF (Invitrogen), various types of Wnt inhibitors (DKK1 (R & D, 500 ng/ml), C59 (Cellagen Technology, 2-10 nM), XAV (Stemgent, 500 nM-2 μM) or IWP4 (Stemgent, 500 nM-2.5 μM)), LDN193189 (Stemgent), KSR (Invitrogen), 0.1 mM MEM non-essential amino acid (Invitrogen), 0.1 mM 2-mercaptoethanol (WAKO), and 2 mM L-Gln (Invitrogen) (initiation of differentiation induction, day 0). […]\nThe concentration of LDN193189 used in the above-described induction method was examined. […] Furthermore, the expression levels of the CoupTF1 and Sfrp1 genes were measured according to a qPCR method (FIG. 5C). […]"}, "[3]": {"test_system": "ES cells or the iPS cells", "experiment": "Cell death / cytotoxicity in spheres on the 18th day of the culture", "conditions": "2 μM LDN193189, 18th day of the culture", "protocol": "On the day before induction of differentiation, in order to separate the ES cells or the iPS cells, which had been cultured in a culture medium to which 10 μM Y-27632 (WAKO) had been added, from the SNL feeder cells, the SNL cells were removed with CTK and the remaining cells were then dissociated using Accumax (ICT). The cells were transferred on a 96-well plate (Lipidure-coat 96-well plate (NOF Corporation)) in an amount of 9×10^3 cells per well. Thereafter, the cells were subjected to a suspension culture in DMEM/F12 (WAKO) comprising 50 μM Y-27632 (WAKO), 10 μM SB43152 (Sigma), 10 ng/ml bFGF (Invitrogen), various types of Wnt inhibitors (DKK1 (R & D, 500 ng/ml), C59 (Cellagen Technology, 2-10 nM), XAV (Stemgent, 500 nM-2 μM) or IWP4 (Stemgent, 500 nM-2.5 μM)), LDN193189 (Stemgent), KSR (Invitrogen), 0.1 mM MEM non-essential amino acid (Invitrogen), 0.1 mM 2-mercaptoethanol (WAKO), and 2 mM L-Gln (Invitrogen) (initiation of differentiation induction, day 0). […] Three days later, the medium was exchanged with DMEM/F12 (WAKO) comprising various types of Wnt inhibitors (DKK1, C59, XAV or IWP4 (Stemgent)), LDN193189 (Stemgent), KSR (Invitrogen), 0.1 mM MEM non-essential amino acid (Invitrogen), 0.1 mM 2-mercaptoethanol (WAKO), and 2 mM L-Gln (Invitrogen) (day 6). […]"}, "iPS cells (836B1)": {"test_system": "iPS cells (836B1)", "experiment": "Immunostaining for CoupTF1 and Ctip2 on day 46, suspension culture with various WNT inhibitors (Example 4)", "conditions": "50 nM C59, 100 nM LGK-974, 1 μM ICG-001, day 46; C59 and LGK-974 compared with each other", "experimental": "On the day before induction of differentiation, in order to separate the iPS cells (836B1), which had been cultured in a culture medium to which 10 μM Y-27632 had been added, from the SNL feeder cells, the SNL cells were removed with CTK and the remaining cells were then dissociated using Accumax. The cells were transferred on a 96-well plate (Lipidure-coat 96-well plate) in an amount of 9×10^3 cells per well. Thereafter, the cells were subjected to a suspension culture in DMEM/F12 comprising 50 μM Y-27632, 10 μM SB43152, 10 ng/ml bFGF, various types of Wnt inhibitors (50 nM C59, 100 nM LGK-974, or 1 μM ICG-001 (Cellagen Technology)), 100 nM LDN193189, 10% KSR, 0.1 mM MEM non-essential amino acid, 0.1 mM 2-mercaptoethanol, and 2 mM L-Gln (initiation of differentiation induction, day 0). […] Three days later, the medium was exchanged with DMEM/F12 comprising various types of WNT inhibitors (C59, LGK-974, or ICG-001), 100 nM LDN193189, 10% KSR, 0.1 mM MEM non-essential amino acid, 0.1 mM 2-mercaptoethanol, and 2 mM L-Gln (day 6). Thereafter, the medium was exchanged with a fresh one of the same type every 3 days, and the culture was carried out for 18 days after the initiation of differentiation induction (day 18).\nA half of the medium on day 18 was removed by aspiration, and thereafter, Neurobasal, to which B27, 2 mM L-Gln, and 10 units/ml penicillin and streptomycin had been added, was added in the same amount as the removed medium to the remaining medium. Likewise, a half amount of the medium was exchanged on day 21. On day 24, the cells were transferred on a petri dish, and thereafter, a half of the medium was exchanged every 3 or 4 days. On day 46, the obtained cells were immunostained using antibodies against CoupTF1 and Ctip2. […] From the aforementioned results, it was confirmed that nerve cells existing in the desired corticocerebral motor area can be induced even by utilizing the WNT inhibitor LGK-974 having a similar action to C59."}, "[4]": {"conditions": "0.1 μM, 0.5 μM and 2 μM LDN193189, 46 days, qPCR, in a concentration-dependent manner"}, "[5]": {"conditions": "500 ng/ml DKK1 as Wnt inhibitor, cultured for 18 days, qPCR"}}}
{"molecule": "c1ccc2c(-c3cnn4cc(-c5ccc(N6CCNCC6)cc5)cnc34)ccnc2c1", "note": "[LDN193189, 4-(6-(4-(piperazin-1-yl)phenyl)pyrazolo [1,5-a]pyrimidin-3-yl)quinoline]", "values": [{"measurement": "expression level of CoupTF1", "setting": "[1]; [4]", "result": "low"}, {"measurement": "expression level of Sfrp1", "setting": "[1]; [4]", "result": "high"}, {"measurement": "CoupTF1-negative Ctip2-positive cells", "setting": "[2]; 0.1 μM, 0.5 μM and 2 μM LDN193189, 46 days", "result": "obtained in a concentration-dependent manner"}, {"measurement": "cell death in spheres", "setting": "[3]", "result": "cell death was often found"}, {"measurement": "cytotoxicity", "setting": "[3]", "result": "strongly appeared"}]}
{"molecule": "SB431542", "values": [{"measurement": "CoupTF1-negative Ctip2-positive cells", "setting": "[2]; 10 μM SB43152 as TGFβ inhibitor, 46 days", "result": "obtained"}]}
{"molecule": "O=C1[C@H](Cc2ccc(O)cc2)N2C(=O)CCN(C(=O)NCc3ccccc3)[C@H]2CN1Cc1cccc2ccccc12", "note": "[ICG-001]", "values": [{"measurement": "efficiency of inducing CoupTF1-negative Ctip2-positive cells", "setting": "iPS cells (836B1)", "result": "significantly low"}]}
{"molecule": "Cc1cc(-c2ncc(CC(=O)Nc3ccc(-c4cnccn4)cn3)cc2C)ccn1", "note": "[LGK-974]", "values": [{"measurement": "efficiency of inducing CoupTF1-negative Ctip2-positive cells", "setting": "iPS cells (836B1)", "result": "not found a large difference"}]}
{"molecule": "DKK1: DKK1 protein, Wnt inhibitor (human NCBI Accession No. NM_012242), R & D (protein, UniProt O94907 32-266, looked up) Dickkopf-related protein 1: TLNSVLNSNAIKNLPPPLGGAAGHPGSAVSAAPGILYPGGNKYQTIDNYQPYPCAEDEECGTDEYCASPTRGGDAGVQICLACRKRRKRCMRHAMCCPGNYCKNGICVSSDQNHFRGEIEETITESFGNDHSTLDGYSRRTTLSSKMYHTKGQEGSVCLRSSDCASGLCCARHFWSKICKPVLKEGQVCTKHRRKGSHGLEIFQRCYCGEGLSCRIQKDHHQASNSSRLHTCQRH", "values": [{"measurement": "cells in the back portion of the forebrain induced", "setting": "[1]; 500 ng/ml DKK1 as Wnt inhibitor, cultured for 18 days", "result": "a large number"}, {"measurement": "expression level of CoupTF1 (forebrain back portion marker)", "setting": "[1]; [5]", "result": "high"}, {"measurement": "expression level of Emx2 (forebrain back portion marker)", "setting": "[1]; [5]", "result": "high"}]}
